Data taken from patent US7425533B2, “Modified hirudin proteins and T-cell epitopes in hirudin” (Merck Patent GmbH, priority 2003, dated 2008).
Residue numbers refer to the chain shown, from its start. Numbers in names are those of the source. Where “and” joins values, the source holds several entries; their conditions need not be identical. Equal values may be shown once.

How the values were obtained:
[1] = cited from earlier work
serine protease thrombin = serine protease thrombin (Homo sapiens, UniProt P00734); conditions: native hirudin; cited from earlier work
PBMC from healthy donors = assay: time-course T-cell assay, PBMC proliferation with WT and variant peptides; format: cell-based, human; conditions: cohorts of 20 healthy donors, SI>2 at any time point, days 6, 7, 8 and 9
Text: “Time course assay” refers to a biological assay such as a proliferation assay in which determinations of activity are made sequentially over a period of time. In the present context, a “time course T-cell assay”, refers to the determination of T-cell proliferation in response to a test immunogen (peptide) at multiple times following exposure to the test immunogen. The terms “time course T-cell assay” and “time course immunogenicity assay” may be used interchangeably herein.
Bulk cultures of 2-4×10^6 PBMC/well were established from 20 healthy donor samples in 24 well plates. Cells were incubated for 6 to 9 days with WT and variant peptides spanning the immunogenic regions (see Table 4). T cell proliferation was assessed by tritiated thymidine incorporation on days 6, 7, 8 and 9. Proliferation was assessed at each time point, by gently resuspending the bulk cultures and removing samples of PBMC, that were then incubated in triplicate wells of U-bottomed 96 well plate with 1 μCi/well tritiated thymidine for 18 hours as described above.
The time course assay was used to test variant peptides containing substitutions over WT. Substitutions were made at key locations where there was expectation that the substitution would prevent binding to MHC class II and therefore, subsequent T cell proliferation in the assay. FIG. 2 and FIG. 3 respectively show exemplary donor responses over the time course and overall response frequencies.

human PBMCs = assay: T-cell epitope mapping, PBMC proliferation (tritiated thymidine) with 15 mer hirudin peptides; format: cell-based; conditions: for donor response (SI>2): initial analysis, 25 donor samples, peptides at 1 μM and 10 μM, 7 days
thrombin = biological target: T1, thrombin (Homo sapiens, UniProt P00734); assay: chromogenic thrombin inhibition assay; format: biochemical; conditions: chromogenic substrate H-D-Phe-Pep-Arg-pNA, 37° C., relative to WT hirudin
T1 construct: purchased Diagnostica Stago (via Axis Shield Diagnostics, Dundee, UK) Stachrom HCII assay kit (catalogue number not given)
Text: A “thrombin inhibition assay” according to the present context means an in vitro assay able to provide a reading of the functional capability of the test protein. In the present instance this means the ability of a given hirudin mutein to evoke a specific measurable chromogenic response. Particularly suitable assays are exemplified herein using thrombin and the chromogenic thrombin substrate H-D-Phe-Pep-Arg-pNA. Other assay formats can be contemplated to also provide quantitative estimations of specific activity of the test molecules and permit ED50 determinations. […]
The functional activity of the modified hirudin proteins was assessed using a chromogenic thrombin inhibition assay. […] The chromogenic substrate H-D-Phe-Pep-Arg-pNA is then added and any residual free thrombin present will cleave the substrate to form H-D-Phe-Pep-Arg-OH and pNA that can then be detected spectrophotometrically at 405 nm […]
The plate was warmed to 37° C. for 5 minutes followed by addition of 40 μl thrombin and incubated for 120 seconds at 37° C. with shaking. […] 40 μl acetic acid was added to quench reaction and the plate was read spectrophotometrically at 405 nm. Absorbance at 405 nm vs hirudin concentration was plotted using Sigma plot (Sigma Poole, UK) and IC50 values calculated by fitting a sigmoidal equation. […]

Molecule: [Leu^1, Thr^2]-63-desulphohirudin [lepirudin]
- fatal outcomes ([1]; among the severe anaphylaxis cases, previous treatment course 1 to 12 weeks earlier): 4
- patients judged to have had severe anaphylaxis ([1]; between 1994 and 2002, within minutes of intravenous administration): 9 patients

Molecule: Hirudin
- Ki (serine protease thrombin): 10^−11 to 10^−14 M

Molecule: CEKGSDGEKNQCVTG (modified hirudin sequence)
- % donor response in time course (PBMC from healthy donors): 10%

Molecule: CAAGSDGEKNQCVTG (modified hirudin sequence)
- % donor response in time course (PBMC from healthy donors): 5%

Molecule: 10: 15 mer hirudin peptide GNKCILGSDGEKNQC, SEQ ID NO: 96 (hirudo medicinalis) [Peptide 10]
- donor response (SI>2) (human PBMCs): 8%

Molecule: 15: 15 mer hirudin peptide VTGEGTPKPESHNDG, SEQ ID NO: 101 (hirudo medicinalis) [Peptide 15]
- final response rate (human PBMCs; across a total of 55 donor samples): 4%
- donor response (SI>2) (human PBMCs): 8%

Molecule: CRHGSDGEKNQCVTG (modified hirudin sequence)
- % donor response in time course (PBMC from healthy donors): 5%

Molecule: CILGSDGEKNQCVTG (hirudo medicinalis) [reference compound]
- % donor response in time course (PBMC from healthy donors): 25%

B1: M 25: hirudin mutein I29R L30R, SEQ ID NO: 28 (protein)
chain: VVYTDCTESGQNLCLCEGSVVCGQGNKCRRGSDGEKNQCVTGEGTPKPESHNDGDFEEIPEEYLQ
modifications: ends and bridges not checked
- Relative Activity (Ratio of variant IC50/WT IC50) (thrombin): 0.70

B2: M 19: hirudin mutein I29E L30K, SEQ ID NO: 22 (protein)
chain: B1 chain with R29E, R30K
modifications: ends and bridges not checked
- Relative Activity (Ratio of variant IC50/WT IC50) (thrombin): 1.0 and 0.55
